Assay results reported in patent publication US11779628B2, “Use of cell-permeable peptide inhibitors of the JNK signal transduction pathway for the treatment of various diseases” (Xigen Inflammation Ltd., priority 2014, dated 2023).

What was measured:
Brown Norway rats, STZ = assay: Diabetic retinopathy prevention study in STZ treated rat (IVT); format: in vivo; conditions: 0.2 and 2 μg/eye IVT
From the text: The objective of this study was to determine the ability of XG-102 to prevent diabetic retinopathy when administered by intravitreal injections to streptozotocin (STZ)-treated (hyperglycemic) rats.
Sterile vials containing 0.0412 g of inducing agent (STZ) were pre-weighed, sealed and transferred to the dosing room for administration to Groups 2 to 4 animals and Spares on Day −7. A duplicate set of empty, appropriately labeled sterile vials were provided. The reconstituted STZ solution was filtered into these vials for dosing. The Reference Item, 0.9% NaCl, was administered as received. XG-102 was prepared using the correction factor 1.383. A stock solution equal to the highest dose level was prepared in vehicle, 0.9% Sodium Chloride for Injection, and sterile filtered through a 0.22 μm polyvinylidene difluoride (PVDF) filter. The lower dose levels were prepared by directly diluting the stock solution. Dose formulations were prepared once at appropriate concentrations to meet dosage level requirements. All dilutions were prepared by directly diluting the stock solution with vehicle. Three dosing aliquots (Days 1, 8 and 15) were prepared and stored in a freezer set to maintain −20° C. Aliquot(s) of each dose level were thawed at ambient temperature on each day of dosing and the solution maintained at room temperature for no longer than 6 hours. […]

[1] = test system: HCT 116 human colon tumor; assay: Orthotopic HCT 116 human colon tumors in SCID mice; format: in vivo
Procedure: The objective of this study was to determine the effect of XG-102 on the growth of HCT 116 human colon tumor orthotopically xenografted in SCID mice.
For XG-102 administration the required amount of XG-102 was dissolved in the vehicle. The formulation was prepared according to the procedure detailed below. Concentrations were calculated and expressed taking into account test item purity and peptide content (multiplier coefficient was 74.6%). […] Diluted solutions were maintained on ice until use. Unused material was discarded. XG-102 was injected once daily at 0.1 and 1 mg/kg/inj. for a total of fourteen consecutive administrations (Q1Dx14). The routes of substance administrations were: injected subcutaneously (SC) at 5 ml/kg/inj., administered per os (PO) to mice by oral gavage via a cannula at 5 ml/kg/adm. The injection and administration volumes were adapted, according to the daily individual body weight of mice.
Twenty four to Forty-eight hours before tumor induction, 5 SCID mice were irradiated with a γ-source (1.8 Gy, Co^60, INRA, Dijon, France). Ten millions (10^7) HCT 116 cells suspended in 200 μl of RPMI medium were subcutaneously injected in the right flank of the 5 female SCJD mice. When tumors reached 1000-2000 mm^3, mice were sacrificed. Tumors were surgically excised from the animal to obtain fresh tumor fragments (20-30 mg) to be orthotopically implanted on the caecum of 75 mice at D0.
Twenty four to forty-eight hours before tumor implantation, 75 SCID mice were irradiated with a γ-source (1.8 Gy, Co^60, INRA, Dijon, France). The surgery was performed in the afternoon, with a minimum delay of two hours after the 7th XG-102 treatment. The abdomen from anaesthetized animal was opened through a median incision under aseptic conditions. The caecum was exteriorized and a small lesion was performed on caecum wall. The tumor fragment was placed on lesion and fixed with 6/0 sutures. The abdominal cavity was subsequently closed in 2 layers with 4/0 sutures.
At D-7, mice were randomized according to their body weight before treatment start to form 5 groups of 15 mice. The body weight of each group was not statistically different from the others (analysis of variance). The treatment began at D-7 according to following treatment schedule: • Mice from group 1 received one PO administration of XG-102 vehicle at 5 ml/kg/inj. once daily for a total of fourteen consecutive administrations (Q 1 Dx14), • Mice from group 2 received one PO administration of XG-102 at 0.1 mg//kg/inj. once daily for a total of fourteen consecutive administrations (QI Dx14), • Mice from group 3 received one PO administration of XG-102 at 1 mg//kg/inj. Once daily for a total of fourteen consecutive administrations (Q1Dx14), • Mice from group 4 received one SC injection of XG-102 at 0.1 mg//kg/inj. once daily for a total of fourteen successive administrations (Q1Dx14), • Mice from group 5 received one SC injection of XG-102 at 1 mg//kg/inj. once daily for a total of fourteen consecutive administrations (Q1Dx14):
Mice were monitored every day throughout the study for behaviour and survival. The body weight and tumor volume was monitored twice a week for all mice throughout the study. Isoflurane® Forene (Centravet, Bondoufle, France) was used to anaesthetize the animals before cell injection, surgery (orthotopic tumor implantation) and sacrifice.
Mice were sacrificed at D26. […] Invasion of liver by tumor nodules was evaluated macroscopically. […]

Question: What does the source list for CC(C)C[C@@H](NC(=O)[C@@H](Cc1ccccc1)NC(=O)[C@H]1CCCN1C(=O)[C@@H](CCC(N)=O)NC(=O)[C@H](NC(=O)[C@H]1CCCN1C(=O)[C@@H](CCCNC(=N)N)NC(=O)[C@@H](CO)NC(=O)[C@@H](CCC(N)=O)NC(=O)[C@H](N)CC(=O)O)C(C)C)C(=O)N[C@H](CC(N)=O)C(=O)N[C@H](CC(C)C)C(=O)N[C@@H](C(=O)N[C@@H](C(=O)N1CCC[C@@H]1C(=O)N[C@H](CCCNC(=N)N)C(=O)N[C@H](CCCCN)C(=O)N1CCC[C@@H]1C(=O)N[C@H](CCCNC(=N)N)C(=O)N1CCC[C@@H]1C(=O)N1CCC[C@@H]1C(=O)N[C@H](CCCNC(=N)N)C(=O)N[C@H](CCCNC(=N)N)C(=O)N[C@H](CCCNC(=N)N)C(=O)N[C@H](CCC(N)=O)C(=O)N[C@H](CCCNC(=N)N)C(=O)N[C@H](CCCNC(=N)N)C(=O)N[C@H](CCCCN)C(=O)N[C@H](CCCCN)C(=O)N[C@H](CCCNC(=N)N)C(=O)NCC(=O)O)[C@H](C)O)[C@H](C)O [XG-102]?
Answer: clinical signs, body weights, food consumption (Brown Norway rats, STZ): no XG-102-related clinical signs or effects on body weights, body weight gains or food consumption; deaths (Brown Norway rats, STZ): no XG-102-related deaths during the study; percentage of death D0 to D9 (surgery complications) ([1]; 1st treated group listed (PO 0.1 mg/kg, order assumed)): 40%; percentage of death D0 to D9 (surgery complications) ([1]; 2nd treated group listed (PO 1 mg/kg, order assumed)): 34%; percentage of death D0 to D9 (surgery complications) ([1]; 3rd treated group listed (SC 0.1 mg/kg, order assumed)): 47%; percentage of death D0 to D9 (surgery complications) ([1]; 4th treated group listed (SC 1 mg/kg, order assumed)): 40%; MBWC at D-2 ([1]; PO 0.1 mg/kg/adm.): +7.1±4.6%
